In US20170038387A1, “METHODS FOR TREATING CHRONIC LYMPHOCYTIC LEUKEMIA AND THE USE OF BIOMARKERS AS A PREDICTOR OF CLINICAL SENSITIVITY TO IMMUNOMODULATORY THERAPIES” (Celgene Corporation, priority 2015, published 2017):

Assays:
[1] = system: primary CLL samples; experiment: TMT-tagging and mass-spectrometry profiling of relative protein abundance after compound exposure; type: cell-based, human
Source text: Data import: Relative abundance (RA) data was imported into the R statistical programming environment v.3.1.2. Proteins with less than one spectral count in any of the three MS runs for each case scenario were filtered out and relative abundance was scale normalized to the same median by using normalizeBetweenArrays( ) function implemented in the limma package for Bioconductor (see Yang et al., Nucleic Acids Research, 30(4), e15 (2002)).
Comparative analysis: RA scores were log 2-transformed to perform direct comparison of compounds exposure versus DMSO control and a paired moderated t-test (see Smyth, Statistical Applications in Genetics and Molecular Biology, 3(1), article 3 (2004)) was performed by using lmfit( ) and eBayes( ) functions form limma package to test differential relative abundance between experimental conditions. For differential analysis across cases, the log-2 fold changes of replicates for two of the case scenarios were considered.
Linear regression analysis: Linear regression was modeled by using lm( ) function from the stats package. This function provided the correlation coefficients as well as the linear fitted model. Data were assessed for outliers detection within the linear model via the Studentized residuals method (implemented in outlierTest( ) function from car package) and deemed significant if their q-values were under a threshold of 0.05 (5%).
The proteins subjected to the analysis were those with more than one spectral count matched in three MS runs representing each case scenario. A total of 6114, 6070, 5982 and 5382 proteins were retained for each case scenario. Differential expression analysis was applied to the high and consistent coverage of 4594 proteins quantified across all case scenarios. FIGS. 2A-2D show distribution of normalized relative abundances for each replicate of the four case scenarios (Cases B1-B4). The standard deviation of each replicate is represented as a stair-plot line at the bottom of the boxplot. FIGS. 3A-3D show heatmaps representing correlations of log 2 fold-changes of protein levels post compound treatment as compared with DMSO across conditions for all case scenarios. Low correlation of log 2 fold-changes at 6 hours may be due to the alteration of a small subset of proteins at an early time point without strong general effects across the proteome. Stronger correlations at 24 hours can be linked to a higher proportion of proteins perturbed reflecting downstream changes upon compound exposure.

[2] = system: samples from CLL patients; experiment: in vitro proliferation assays on samples from four groups of CLL patients; type: cell-based, human
Source text: The samples used in this study were from four groups of CLL patients.

[3] = system: CLL cell lines; experiment: Thymidine incorporation assay (cell proliferation); type: cell-based
Procedure: After four days, cells were diluted 1:7 with fresh media, containing the same concentration of treatment compound. Three days later, ^3H-thymidine was added to label proliferating cells for 6-7 hours. Cells were then harvested onto filter plates for counting on a scintillation counter.

[4] = FIG. 5 heatmap, 10 μM, 24 hours, vs DMSO

Nc1cccc2c1CN(C1CCC(=O)NC1=O)C2=O (centres unmarked) [lenalidomide, 1-oxo-2-(2,6-dioxopiperidin-3-yl)-4-aminoisoindoline, reference compound]
protein abundance levels of SELL, SNX20 and KLF13 upon exposure ([1]; 10 μM, 24 hours): not affected or slightly increased
GZMB protein expression level upon exposure ([1]; Case B1): increased
level of WIZ (widely-interspaced zinc-finger) upon exposure ([1]; Case B1): increased
GZMB protein expression level upon exposure ([1]; Case B4): decreased
levels of Group 4 proteins (6 proteins including IKZF3 and a second IKZF1 isoform) upon exposure [1, 4]: mild effects
protein abundance levels of Group 3 proteins (SMNX20, SELL, KLF13, WIZ, IKZF1, NFKBIE, TCF7 and IRF8) upon exposure [1, 4]: do not change or increase
effect on cell proliferation ([2]; samples from the fourth group of patients (Case B4)): neither Compound A nor lenalidomide had any effect on cell proliferation
effect on cell proliferation ([2]; samples from the third group of patients (Case B3)): no effect on cell proliferation
responsiveness of cell lines to treatment ([3]; Bucket #1 (EHEB and I83-E95)): responsive to both compounds
responsiveness of cell lines to treatment ([3]; Bucket #2 (Mec2, CII, and CI)): responsive to both compounds
responsiveness of cell lines to treatment ([3]; Bucket #4 (HG3)): not responsive to either Compound A or lenalidomide
